Experimental data from paper PMC10712727, “Safety, Tolerability, and Pharmacokinetics of Senaparib, a Novel PARP1/2 Inhibitor, in Chinese Patients With Advanced Solid Tumors: A Phase I Trial” (The Oncologist, 2023).

Test system: BRCA^mut+ tumors
Assay: Tumor response per RECIST v1.1 (ORR, DCR, DOR, PFS), BRCA^mut+ subgroup
Assay type: in vivo, human
Conditions: for Patients with reduced tumor size: BRCA^mut+ subgroup; for PFS, Median (95% CI): Kaplan-Meier
Description: The dose-expansion period included 3 populations: dose groups in which at least one patient achieved complete response (CR) or partial response (PR) per RECIST v1.1[16] and 1 dose group higher (evaluated for safety), as well as the dose group at the maximum tolerated dose (MTD)/recommended phase II dose (RP2D). Each of these groups included those patients in the respective dose-escalation group plus a planned additional 10 patients (approximately 20 patients in the MTD/RP2D group) with BRCA^mut+ solid tumors (ovarian, breast, or prostate cancer were preferred, and ovarian cancer could be BRCA wild type). Patients received senaparib monotherapy orally QD or BID (50-mg dose only) over each 3-week cycle until disease progression or unacceptable toxicity.
Safety was assessed by recording the incidence of dose-limiting toxicities (DLTs), and the incidence, nature, severity (graded per National Cancer Institute Common Terminology Criteria for Adverse Events version 4.03 [NCI CTCAE v4.03][18]), and relatedness of treatment-emergent adverse events (TEAEs). DLTs were predefined toxicities (Supplementary Table S2) recorded over the 7 days following the single-dose administration of senaparib and during the first treatment cycle (day 1-day 21) for each dose group in the dose-escalation period only. The MTD was defined as the maximum dose at which ≤1/6 patients experienced a DLT. Senaparib PK parameters were derived from blood samples collected from patients after the single administration, and at regular intervals during the first cycle of the dose-escalation and dose-expansion periods. Plasma concentrations of senaparib were determined using high-performance liquid chromatography-tandem mass spectrometry. Tumor response was assessed every 6 weeks per RECIST v1.1,[16] recording objective response rate (ORR), disease control rate (DCR), duration of response (DOR), and progression-free survival (PFS) by dose level for all patients and for those harboring BRCA^mut+ tumors.
There was no formal sample size calculation based on statistical hypothesis testing for this study; the planned enrolment was approximately 30-60 patients across the dose-escalation and dose-expansion cohorts. The actual number in the dose-escalation cohort was adjusted based on the number of dose cohorts required for the modified Fibonacci dose-escalation design and the determined MTD. Definitions for all analysis populations (safety, DLT, PK, and efficacy [intent-to-treat, ITT]) are provided in Supplementary Table S2. No statistical tests were performed; patient demographic and baseline characteristics, safety/tolerability, PK parameters, and efficacy were evaluated descriptively. ORR and DCR and their 95% CIs were calculated for each group using the exact probability method. Kaplan-Meier statistics were used to estimate DOR and PFS, and their 95% CIs for each dose group separately. Dose linearity was explored based on the single-dose data of area under the time-concentration curve (AUC) and maximum plasma concentration (Cmax) using the power model (Y = α × dose β) for the dose range 2-80 mg on a log-transformed scale. The following criterion was used to determine whether dose proportionality was met: if the (2-sided) 90% CI for β was wholly contained within the interval (1 + log(0.5)/log(r), 1 + log(2)/log(r)), then dose proportionality was supported. Here, r was defined as the ratio of the highest to lowest dose. All data analyses were carried out using SAS EG7.1 or higher or (for PK parameters) WinNonlin 7.0 or higher.

[1] = BRCA^mut+, 26 evaluable for tumor response
[2] = BRCA^mut+, 5 mg QD, PFS evaluable n 2
[3] = BRCA^mut+, 10 mg QD, PFS evaluable n 1
[4] = BRCA^mut+, 10 mg QD, evaluable n 1
[5] = BRCA^mut+, 20 mg QD, PFS evaluable n 3
[6] = BRCA^mut+, 20 mg QD, evaluable n 2
[7] = BRCA^mut+, 60 mg QD, PFS evaluable n 4
[8] = BRCA^mut+, 60 mg QD, evaluable n 4
[9] = BRCA^mut+, 80 mg QD, DOR evaluable n 3
[10] = BRCA^mut+, 80 mg QD, PFS evaluable n 6
[11] = BRCA^mut+, 80 mg QD, evaluable n 6
[12] = BRCA^mut+, 100 mg QD, DOR evaluable n 2
[13] = BRCA^mut+, 100 mg QD, PFS evaluable n 13
[14] = BRCA^mut+, 100 mg QD, evaluable n 11
[15] = BRCA^mut+, 120 mg QD, PFS evaluable n 2
[16] = BRCA^mut+, 120 mg QD, evaluable n 2
[17] = BRCA^mut+, Total, DOR evaluable n 7
[18] = BRCA^mut+, Total, PFS evaluable n 32
[19] = BRCA^mut+, Total, evaluable n 26

O=C(c1cc(Cn2c(=O)[nH]c(=O)c3c(F)cccc32)ccc1F)N1CCN(c2ncccn2)CC1 [Senaparib]
Median DOR (BRCA^mut+ patients, 95% CI, 39-NR): 169 days | Median PFS (BRCA^mut+ patients, 95% CI, 79-464): 215 days | Patients with reduced tumor size (non-ovarian (3/10)): 30.0% | Patients with reduced tumor size (ovarian cancer (10/16)): 62.5% | DCR [1]: 73.1% | ORR [1]: 26.9% | DOR: Events (BRCA^mut+, 2 mg QD, DOR evaluable n 0): 0 n (%) | PFS: Events (BRCA^mut+, 2 mg QD, PFS evaluable n 0): 0 (0) n (%) | DOR: Events (BRCA^mut+, 5 mg QD, DOR evaluable n 0): 0 n (%) | PFS: Events [2]: 2 (100) n (%) | PFS, Median (95% CI) [2]: 254.5 (45-464) days | DOR: Events (BRCA^mut+, 10 mg QD, DOR evaluable n 0): 0 n (%) | PFS: Events [3]: 1 (100) n (%) | PFS, Median (95% CI) [3]: 49 (49-49) days | Complete response [4]: 0 n (%) | DCR (complete response+partial response+stable disease) [4]: 0 n (%) | ORR (complete response+partial response) [4]: 0 (0) n (%) | Partial response [4]: 0 n (%) | Stable disease (≥42 days from cycle 1 day 1) [4]: 0 n (%) | DOR: Events (BRCA^mut+, 20 mg QD, DOR evaluable n 1): 0 n (%) | PFS: Events [5]: 1 (33.3) n (%) | PFS, Median (95% CI) [5]: – (39-NR) | Complete response [6]: 0 n (%) | DCR (complete response+partial response+stable disease) [6]: 1 (50.0) n (%) | ORR (complete response+partial response) [6]: 1 (50.0) n (%) | Partial response [6]: 1 (50.0) n (%) | Stable disease (≥42 days from cycle 1 day 1) [6]: 0 n (%) | DOR: Events (BRCA^mut+, 40 mg QD, DOR evaluable n 0): 0 n (%) | DOR: Events (BRCA^mut+, 50 mg BID, DOR evaluable n 0): 0 n (%) | PFS: Events (BRCA^mut+, 50 mg BID, PFS evaluable n 1): 0 (0) n (%) | DOR: Events (BRCA^mut+, 60 mg QD, DOR evaluable n 1): 0 n (%) | PFS: Events [7]: 2 (50.0) n (%) | PFS, Median (95% CI) [7]: 255 (127-NR) days | Complete response [8]: 0 n (%) | DCR (complete response+partial response+stable disease) [8]: 4 (100) n (%) | ORR (complete response+partial response) [8]: 1 (25.0) n (%) | Partial response [8]: 1 (25.0) n (%) | Stable disease (≥42 days from cycle 1 day 1) [8]: 3 (75.0) n (%) | DOR, Median (95% CI) [9]: 120 (39-169) days | DOR: Events [9]: 3 (100) n (%) | PFS: Events [10]: 5 (83.3) n (%) | PFS, Median (95% CI) [10]: 167 (40-216) days | Complete response [11]: 0 n (%) | DCR (complete response+partial response+stable disease) [11]: 5 (83.3) n (%) | ORR (complete response+partial response) [11]: 3 (50.0) n (%) | Partial response [11]: 3 (50.0) n (%) | Stable disease (≥42 days from cycle 1 day 1) [11]: 2 (33.3) n (%) | DOR, Median (95% CI) [12]: – (169-NR) | DOR: Events [12]: 1 (50.0) n (%) | PFS: Events [13]: 5 (38.5) n (%) | PFS, Median (95% CI) [13]: 289 (42-NR) days | Complete response [14]: 0 n (%) | DCR (complete response+partial response+stable disease) [14]: 8 (72.7) n (%) | ORR (complete response+partial response) [14]: 2 (18.2) n (%) | Partial response [14]: 2 (18.2) n (%) | Stable disease (≥42 days from cycle 1 day 1) [14]: 6 (54.5) n (%) | DOR: Events (BRCA^mut+, 120 mg QD, DOR evaluable n 0): 0 n (%) | PFS: Events [15]: 1 (50.0) n (%) | PFS, Median (95% CI) [15]: – (48-NR) | Complete response [16]: 0 n (%) | DCR (complete response+partial response+stable disease) [16]: 1 (50.0) n (%) | ORR (complete response+partial response) [16]: 0 (0) n (%) | Partial response [16]: 0 n (%) | Stable disease (≥42 days from cycle 1 day 1) [16]: 1 (50.0) n (%) | DOR, Median (95% CI) [17]: 169 (39-NR) days | DOR: Events [17]: 4 (57.1) n (%) | PFS: Events [18]: 17 (53.1) n (%) | PFS, Median (95% CI) [18]: 215 (79-464) days | Complete response [19]: 0 n (%) | DCR (complete response+partial response+stable disease) [19]: 19 (73.1) n (%) | ORR (complete response+partial response) [19]: 7 (26.9) n (%) | Partial response [19]: 7 (26.9) n (%) | Stable disease (≥42 days from cycle 1 day 1) [19]: 12 (46.2) n (%)
